These are literature values, as cited in patent US20120093928A1, “ORAL METAXALONE COMPOSITIONS” (RANBAXY LABORATORIES LIMITED, priority 2007, published 2012).

For the molecule `Cc1cc(C)cc(OCC2CNC(=O)O2)c1` (centres unmarked) [metaxalone, 5-[(3,5-dimethyphenoxy)methyl]-2-oxazolidinone], the plasma half-life (in vivo) was 2 to 3 h. Further, the “time to mean peak plasma concentrations” value (oral, single 800 mg dosage) is 2 h.
